Test results taken from patent publication US8784910B2, “Antimicrobial compositions” (Lonza Inc., priority 2002, dated 2014).

Test system: S. aureus (ATCC #6538), P. aeruginosa (ATCC #9027), and E. coli (ATCC #8739)
Assay: Mixed bacterial challenge of preserved anionic protein shampoo (Examples 4 and 7)
Type: cell-based
Conditions: for Qb: concentration alone required for 100% retardation of the bacteria
Procedure: Each anionic shampoo sample in Table 3 below was tested as follows. A standardized mixed bacterial solution was prepared according to the following procedure. 3 agar stabs of S. aureus (ATCC #6538), P. aeruginosa (ATCC #9027), and E. coli (ATCC #8739) were separately incubated at about 35 EC for about 24 hours. Each stab was then washed with 3 mL of sterile 0.85% saline solution. The washes of the 3 stabs were pooled together to form an organism mixture. The absorbance of the organism mixture at 530 nm was adjusted to about 1.00 by adding saline. The spectrometer was calibrated with a saline blank. A 5 mL aliquot of the organism mixture was mixed together to produce the standardized mixed bacterial solution. Then, 40 g of each shampoo sample was inoculated with 0.2 mL of the standardized mixed bacterial solution and mixed. 1 g of the mixture was added to a sterile 20×150 mm screw cap test tube.
9 mL of sterile D/E neutralizer broth was added to the test tube and mixed to form a 10^−1 dilution. Serial dilutions were prepared through to a 10^−6 dilution with phosphate buffered water. The serial dilutions were plated onto Tryptic Soy Agar and incubated for 2 days at about 35 EC. Bacteria counts were performed after 0, 7, and 14 days.
The anionic protein shampoo composition was comprised of 35% by weight of sodium lauryl ether sulfate; 25% by weight of triethanolamine lauryl sulfate; 3% by weight coconut diethanolamide (cocamide DEA); 1% by weight of hydrolyzed collagen, available as Polypro 5000™ from Hormel Foods of Austin, Minn.; and 36% by weight of deionized water.
The cinnamaldehyde and other preservative containing samples were prepared by mixing the appropriate amounts of the preservatives and the aforementioned anionic protein shampoo composition and heating the mixture to about 50 EC for about 15 minutes.
Synergism for the cinnamaldehyde/Glydant 2000™ solutions in Table 8 against S. aureus, P. aeruginosa, and E. coli was calculated by the method described in C. E. Kull et al., A Mixtures of Quaternary Ammonium Compounds and Long-chain Fatty Acids as Antifungal Agents@, Applied Microbiology, 9:538-541 (1961). The synergism value (QA/Qa+QB/Qb) in Table 7 was determined. […] Qa is the concentration of cinnamaldehyde alone (in percent by weight) required to yield 100% retardation of the bacteria. QB is the concentration of Glydant 2000™ (in percent by weight) in the mixture, which yielded 100% retardation of the bacteria. Qb is the concentration of Glydant 2000™ alone (in percent by weight) required to yield 100% retardation of the bacteria.
When the value of (QA/Qa+QB/Qb) is less than one, the mixture is synergistic. Values for (QA/Qa+QB/Qb) of 1 and greater than 1, represent an additive effect and an antagonistic effect, respectively.

Question: What does the source list for O=CC=Cc1ccccc1 [Cinnamaldehyde, cinnamaldehyde]?
Answer: S. aureus, P. aeruginosa, and E. coli Day 0 (0.05% in shampoo, Day 0, Example 7 Table 8): 3.0 × 10^6 cfu/g; S. aureus, P. aeruginosa, and E. coli Day 7 (0.05% in shampoo, Day 7, Example 7 Table 8): 6.5 × 10^6 cfu/g; S. aureus, P. aeruginosa, and E. coli Day 14 (0.05% in shampoo, Day 14, Example 7 Table 8): 1.0 × 10^7 cfu/g; S. aureus, P. aeruginosa, and E. coli Day 0 (0.10% by weight in shampoo, Day 0, Table 3): 3.0 × 10^7 cfu/g; S. aureus, P. aeruginosa, and E. coli Day 7 (0.10% by weight in shampoo, Day 7, Table 3): 1.0 × 10^1 cfu/g; S. aureus, P. aeruginosa, and E. coli Day 14 (0.10% by weight in shampoo, Day 14, Table 3): <10 cfu/g; S. aureus, P. aeruginosa, and E. coli Day 0 (0.10% in shampoo, Day 0, Example 7 Table 8): 3.0 × 10^6 cfu/g; S. aureus, P. aeruginosa, and E. coli Day 7 (0.10% in shampoo, Day 7, Example 7 Table 8): 1.0 × 10^1 cfu/g; S. aureus, P. aeruginosa, and E. coli Day 14 (0.10% in shampoo, Day 14, Example 7 Table 8): <10 cfu/g; S. aureus, P. aeruginosa, and E. coli Day 0 (0.20% by weight in shampoo, Day 0, Table 3): 3.0 × 10^7 cfu/g; S. aureus, P. aeruginosa, and E. coli Day 7 (0.20% by weight in shampoo, Day 7, Table 3): <10 cfu/g; S. aureus, P. aeruginosa, and E. coli Day 14 (0.20% by weight in shampoo, Day 14, Table 3): <10 cfu/g; S. aureus, P. aeruginosa, and E. coli Day 0 (0.25% by weight in shampoo, Day 0, Table 3): 3.0 × 10^7 cfu/g; S. aureus, P. aeruginosa, and E. coli Day 7 (0.25% by weight in shampoo, Day 7, Table 3): <10 cfu/g; S. aureus, P. aeruginosa, and E. coli Day 14 (0.25% by weight in shampoo, Day 14, Table 3): <10 cfu/g; Qb (For Day 7): 0.1%; Qb (For Day 14): 0.05%
